Blank lines part the entries; values can stand above or below the compound they belong to.
Experiments:
[1] = biological target: T1, Cathepsin D (Homo sapiens, UniProt P07339); experiment: Human osteoporosis fibroblasts cathepsin D (azo-casein) activity; assay type: cell-based; conditions: Table X; human osteoporosis fibroblasts, DMEM +10% FCS + P/S; read-out: Cathepsin D IC50
T1 construct: azocasein assay pH 5.0
Source text: Osteoporosis Human Fibroblast-CRL-1140, Be SA1

[2] = tested on: Trypsin; experiment: Human osteoporosis fibroblasts trypsin (BAEE) activity; assay type: cell-based; conditions: Table XI; human osteoporosis fibroblasts, 60 min incubation; read-out: Trypsin BAEE IC50
Source text: 1. Trypsin- N-benzoyl-L-arginine ethyl ester pH 8.0, hydrolytic product 253 nm.

[3] = tested on: Aryl sulphatase; experiment: Human osteoporosis fibroblasts aryl sulphatase activity; assay type: cell-based; conditions: Table X; human osteoporosis fibroblasts; read-out: Aryl Sulphatase IC50
Source text: 3. Aryl sulphatase- p-nitrocatechol sulfate, pH
5. 8 p-nitro-catechol product 510 nm.

[4] = tested on: Trypsin; experiment: Mouse macrophage trypsin (BAEE) activity; assay type: cell-based; conditions: Table VIII; mouse macrophages, 60 min incubation; read-out: Trypsin BAEE IC50
[5] = tested on: Elastase; experiment: Mouse macrophage elastase activity; assay type: cell-based; conditions: Table VIII; mouse macrophages, 60 min incubation; read-out: Elastase IC50
[6] = tested on: Acid phosphatase; experiment: Human osteoporosis fibroblasts acid phosphatase activity; assay type: cell-based; conditions: Table X; human osteoporosis fibroblasts; read-out: Acid Phosphatase IC50
Source text: (§1) 1. Acid phosphatase -beta glycerol-3-phosphate, pH 5.0, released IP 720 nm.

[7] = biological target: T2, 5'-lipoxygenase (Mus musculus, UniProt P48999); experiment: Mouse hepatic 5'-lipoxygenase activity; assay type: biochemical; conditions: Table VI; mouse hepatic, 60 min incubation; read-out: 5'-lipoxygenase IC50
T2 construct: Cf1 male mouse hepatic 10% homogenates; from tissue; host or cells: CF1 male mouse liver, 10% homogenate
T2 sequence (P48999 1-674): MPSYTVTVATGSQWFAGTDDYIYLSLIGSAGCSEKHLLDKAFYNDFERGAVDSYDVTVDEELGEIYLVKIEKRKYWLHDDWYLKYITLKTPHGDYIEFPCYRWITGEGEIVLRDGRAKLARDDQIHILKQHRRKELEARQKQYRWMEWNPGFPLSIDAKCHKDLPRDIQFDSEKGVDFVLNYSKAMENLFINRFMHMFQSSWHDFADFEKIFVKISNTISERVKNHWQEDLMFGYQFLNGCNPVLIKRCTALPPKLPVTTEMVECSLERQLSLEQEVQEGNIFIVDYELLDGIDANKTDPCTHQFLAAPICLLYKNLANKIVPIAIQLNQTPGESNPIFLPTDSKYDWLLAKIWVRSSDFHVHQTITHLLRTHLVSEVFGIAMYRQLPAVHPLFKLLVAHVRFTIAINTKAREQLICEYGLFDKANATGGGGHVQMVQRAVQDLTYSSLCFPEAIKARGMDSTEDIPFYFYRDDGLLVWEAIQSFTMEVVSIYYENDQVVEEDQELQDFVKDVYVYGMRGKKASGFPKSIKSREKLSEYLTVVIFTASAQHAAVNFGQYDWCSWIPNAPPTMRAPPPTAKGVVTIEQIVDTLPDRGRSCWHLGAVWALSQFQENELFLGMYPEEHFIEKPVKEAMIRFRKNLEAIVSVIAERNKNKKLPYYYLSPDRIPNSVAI
Source text: (§2) 1. Cf1 male mouse hepatic 10% homogenates in 0.25M sucrose+0.001MEDTA,pH 7.2.
5'-lipoxygenase Mylari, B.L., et al, J. Med.

[8] = tested on: Sprague Dawley Rats; experiment: Anti-inflammatory activity in Sprague Dawley rats; assay type: in vivo; conditions: Table IV; 8 mg/kg I.P.
[9] = tested on: Elastase; experiment: Human osteoporosis fibroblasts elastase activity; assay type: cell-based; conditions: Table XI; human osteoporosis fibroblasts, 60 min incubation; read-out: Elastase IC50
Source text: 2. Elastase- N-succinyl-L-alanyl-L-alanine-p-nitroanilide, pH 8.0, p-nitro anilide 410 nm.

[10] = tested on: Prostaglandin cyclooxygenase; experiment: Mouse macrophage prostaglandin cyclooxygenase activity; assay type: cell-based; conditions: Table VIII; mouse macrophages, 60 min incubation; read-out: Prostaglandin Cyclooxygenase IC50
Source text: 3. Mouse macrophages J774A.1 BALB/c
Prostaglandin synthetase purified beef seminal vesicle ^3 H arachidonic acid (86.2 Ci/mmol), tlc separation.

[11] = tested on: Aryl sulphatase; experiment: Mouse macrophage aryl sulphatase activity; assay type: cell-based; conditions: Table VII; mouse macrophage cultured cells, 60 min incubation; read-out: Aryl Sulphatase IC50
[12] = tested on: Cf1 male mice; experiment: Writhing reflex, 0.6% acetic acid; assay type: in vivo; conditions: Mus musculus, ip; Table IV; 8 mg/kg I.P.
[13] = tested on: Acid phosphatase; experiment: Mouse macrophage acid phosphatase activity; assay type: cell-based; conditions: Table VII; mouse macrophage cultured cells, 60 min incubation; read-out: Acid Phosphatase IC50
[14] = tested on: Prostaglandin cyclooxygenase; experiment: Human osteoporosis fibroblasts prostaglandin cyclooxygenase activity; assay type: cell-based; conditions: Table XI, 60 min incubation, read-out: Prostaglandin Cyclooxygense IC50
[15] = in vivo; conditions: mouse, Table 1, N=6
Description: Amine borane compounds (0 to 100 mg/kg) were administered to CF1 male mice as a single injection with six mice for each dosage. Mice were weighed daily and the number of deaths was recorded each day for a 14 day period. The LD50 value was determined by the procedure of S.C. Gad and C.S. Weil, "Statistics for Toxicologists" in Principles and Methods of Toxicology, A.W. Hayes, Ed., 2nd Edition, P 435-483 Raven Press, New York 1982.

[16] = tested on: cAMP; experiment: PMNs cAMP levels, Gilman's radioimmune assay; assay type: cell-based, rat; conditions: 5 × 10^-6 M, N=6
Source text: (§3) 2. PMNs-polymorphonuclear neutrophils-rat peritoneal cavity 0.5% oyster glycogen.
cAMP levels Gilman's radioimmune assay. ^3 H(G)Cyclic-3', 5'-adenosine monophosphate.

[17] = biological target: T3, Cathepsin D (Mus musculus, UniProt P18242); experiment: Mouse hepatic lysosomal cathepsin D activity; assay type: biochemical; conditions: pH 5, read-out: Mouse Liver Cathep.
T3 construct: azocasein assay pH 5.0
T3 sequence (P18242 65-410): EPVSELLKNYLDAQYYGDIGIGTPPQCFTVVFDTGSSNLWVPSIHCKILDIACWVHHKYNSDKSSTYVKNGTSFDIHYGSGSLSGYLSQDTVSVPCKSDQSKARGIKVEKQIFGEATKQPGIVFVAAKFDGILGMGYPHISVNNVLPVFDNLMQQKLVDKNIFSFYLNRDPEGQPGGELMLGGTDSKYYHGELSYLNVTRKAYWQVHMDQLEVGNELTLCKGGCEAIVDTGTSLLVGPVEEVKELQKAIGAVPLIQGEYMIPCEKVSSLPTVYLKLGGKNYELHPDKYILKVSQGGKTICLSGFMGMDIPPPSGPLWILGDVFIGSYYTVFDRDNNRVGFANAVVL
Source text: as §2
(§4) Lysosomal Enzymes - free and total [triton X-100].
(§5) 2. Acid Cathepsin D -azocasein-pH 5.0, hydrolytic azo-peptide produce 366 nm.
Cathepsin azo casein activity -

[18] = tested on: Cf1 male mice; experiment: Writhing reflex, 0.6% acetic acid; assay type: in vivo; conditions: Table 1; Indomethacin 10 mg/kg
Description: Writhing reflex- Cf1 -male mice- 0.6% acetic acid I.P. drugs administered @20 mg/kg/ I.P. 20 min. later - the # of stretches/10 min.
Hendershot, L.C., et al, J.

[19] = tested on: Acid phosphatase; experiment: Rat PMNs acid phosphatase activity; assay type: cell-based; conditions: 5 × 10^-6 M, N=6; 5 µM
Source text: as §3, §1

[20] = biological target: T4, Cathepsin (Rattus norvegicus, UniProt P24268); experiment: Rat PMNs cathepsin activity; assay type: cell-based; conditions: pH 5; 5 × 10^-6 M, N=6; read-out: Rat PMNs Cathep.
T4 construct: azocasein assay pH 5.0
T4 sequence (P24268 65-407): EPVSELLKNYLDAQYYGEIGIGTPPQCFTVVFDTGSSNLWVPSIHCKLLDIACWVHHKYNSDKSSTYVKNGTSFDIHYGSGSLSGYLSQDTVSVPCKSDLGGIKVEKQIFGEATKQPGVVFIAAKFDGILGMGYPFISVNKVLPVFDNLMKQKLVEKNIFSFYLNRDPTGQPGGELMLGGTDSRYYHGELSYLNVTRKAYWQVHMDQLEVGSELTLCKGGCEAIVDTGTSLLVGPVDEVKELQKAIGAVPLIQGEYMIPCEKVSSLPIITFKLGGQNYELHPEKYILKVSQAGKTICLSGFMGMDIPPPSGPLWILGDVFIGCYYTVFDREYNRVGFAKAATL
Source text: as §3, §5

[21] = tested on: Acid phosphatase; experiment: Mouse hepatic lysosomal acid phosphatase activity; assay type: biochemical; conditions: 5 × 10^-6 M, N=6; 5 µM
Source text: as §2, §4, §1
Acid phosphatase activity -

[22] = tested on: Cf1 male mice; experiment: Anti-inflammatory screen, Winter's test, 2% carrageenan hind foot; assay type: in vivo; conditions: Table 1; drugs 8 or 10 mg/kg I.P. 2X; Indomethacin 10 mg/kg
Description: Anti-inflammatory Screen- Cf1 - male mice-Winter's Test 2% carrageenan S.C. plantar surface of hind foot, drugs administered @8 or 10 mg/kg I.P. 2X
Winter, C.A., et al, Proc. Soc.

[23] = tested on: Sprague Dawley male rats; experiment: Chronic adjuvant arthritis screen, Mycobacterium butyricum; assay type: in vivo; conditions: Table 1; Indomethacin 10 mg/kg

T1 sequence (P07339 65-412): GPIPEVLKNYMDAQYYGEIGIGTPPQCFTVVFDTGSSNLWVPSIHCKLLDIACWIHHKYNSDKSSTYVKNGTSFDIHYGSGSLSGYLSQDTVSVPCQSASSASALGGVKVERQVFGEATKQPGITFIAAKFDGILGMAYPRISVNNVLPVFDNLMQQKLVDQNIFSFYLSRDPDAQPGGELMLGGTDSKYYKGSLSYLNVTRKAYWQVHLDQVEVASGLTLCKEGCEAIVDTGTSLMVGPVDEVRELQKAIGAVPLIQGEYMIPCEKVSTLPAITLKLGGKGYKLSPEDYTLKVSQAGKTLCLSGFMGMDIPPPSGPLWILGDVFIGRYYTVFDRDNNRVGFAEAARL

IC50 [1]: 1.93 µM
IC50 [4]: 2.03 µM
IC50 [5]: 3.29 µM
IC50 [7]: 43.5 µM
IC50 [10]: 5.19 µM
IC50 [11]: 9.27 µM
IC50 [13]: 1.12 µM
Structure (SMILES): CCNC(=O)[BH2-][NH+](C)C [Compound 9, Dimethylamine-N-ethylcarbamoylborane]
IC50 [2]: 4.36 µM
IC50 [3]: 7.63 µM
IC50 [6]: 8.6 µM
Anti-Inflammatory Activity Sprague Dawley Rats [8]: 41 % Control
IC50 [9]: 0.98 µM
response vs control in vivo at 8 mg/kg [12]: 26.9%
IC50 [14]: 8.05 µM

Structure (SMILES): COc1ccc2c(c1)c(CC(=O)O)c(C)n2C(=O)c1ccc(Cl)cc1 [Indomethacin, reference compound]
LD50 at 336 h [15]: 28 mg/kg
PMNs cAMP [16]: 80 % Control
activity at 5 µM [17]: 67%
Writhing [18]: 43 % Control
Rat PMNs Acid Phoph. [19]: 100 + 2 % Control
activity at 5 µM [20]: 100%
Mouse Liver Acid Phosph. [21]: 86 + 4 % Control
Anti-inflammatory [22]: 22 % Control
Anti-arthritic [23]: 27 % Control
